EPA's CvTdb concentration-time database

Key:
Rat [1] = assay: concentration in plasma after dosing
Mouse = assay: concentration in plasma after dosing; details: B6C3F1
Rat [2] = assay: concentration in brain after dosing; details: dosed: Perfluorohexane-1-sulphonic acid – potassium salt, 16 mg/kg, oral, Female

O=C(O)COc1ccc(Cl)cc1Cl [2,4-Dichlorophenoxyacetic acid]
Rat [1], dosed: 2,4-Dichlorophenoxyacetic acid, Male, Sprague-Dawley
Details	concentration in plasma [ng/mL]
0.25 h, 2.0 mg/kg, iv	12200
0.25 h, 7.0 mg/kg, oral	9670
0.5 h, 2.0 mg/kg, iv	7630
0.5 h, 7.0 mg/kg, oral	4670
0.75 h, 2.0 mg/kg, iv	4750
2 h, 2.0 mg/kg, iv	376
2 h, 7.0 mg/kg, oral	6510
2.5 h, 2.0 mg/kg, iv	2040
2.5 min, 2.0 mg/kg, iv	24800
2.5 min, 7.0 mg/kg, oral	9340
3 h, 2.0 mg/kg, iv	863
3 h, 7.0 mg/kg, oral	3570
3.5 h, 2.0 mg/kg, iv	858
4 h, 2.0 mg/kg, iv	482
4 h, 7.0 mg/kg, oral	7740
5 h, 7.0 mg/kg, oral	4720
6 h, 7.0 mg/kg, oral	472
10 min, 2.0 mg/kg, iv	14100
10 min, 7.0 mg/kg, oral	12500

concentration in plasma [ng/mL], Mouse, dosed: 2,4-Dichlorophenoxyacetic acid, Male
Details	1.0 mg/kg	2.0 mg/kg	5.2 mg/kg
0.25 h, iv	6980	–	–
0.25 h, oral	1210	5300	16000
0.5 h, oral	3030	3480	16800
1 h, iv	2730	–	–
2 h, oral	486	2900	16000
2.5 h, iv	951	–	–
2.5 min, iv	7580	–	–
2.5 min, oral	2070	3200	–
3 h, oral	470	1950	12800
4 h, iv	1200	–	–
4 h, oral	164	–	6840
5 min, iv	7190	–	–
5 min, oral	3130	5970	11300
6 h, iv	235	–	–
6 h, oral	123	390	1250
8 h, oral	120	–	–
10 h, oral	–	–	459
10 min, iv	7290	–	–
10 min, oral	1360	5500	–

O=C(c1ccccc1)c1ccc(O)cc1O [2,4-Dihydroxybenzophenone]
concentration in plasma [ng/mL], Rat [1], dosed: 2-Hydroxy-4-methoxybenzophenone, oral, F344
Details	0.25 h	0.5 h	2.5 min	3 h	4 h	5 h	6 h	10 h	10 min	12 h
100 mg/kg, Female	174	145	64.3	82.3	54.2	60.3	–	–	200	–
100 mg/kg, Male	52.2	114	–	38.2	65.6	55.8	–	–	31	–
250 mg/kg, Female	410	658	–	166	157	–	–	89.8	57.2	–
250 mg/kg, Male	109	218	–	114	92.3	–	–	91.7	39.4	–
500 mg/kg, Female	287	688	–	–	296	–	–	242	178	185
500 mg/kg, Male	180	192	–	–	233	–	171	–	2430	246

concentration in plasma [ng/mL], Mouse, dosed: 2-Hydroxy-4-methoxybenzophenone
Details	0.25 h	2 h	2.5 min	3 h	10 min
50 mg/kg, iv, Female	800	44.6	–	63.1	1700
50 mg/kg, iv, Male	1440	230	–	70.5	3710
100 mg/kg, oral, Female	721	61.9	44	50.2	383
100 mg/kg, oral, Male	171	320	120	109	195
250 mg/kg, oral, Female	1340	185	71.2	120	1840
250 mg/kg, oral, Male	988	338	115	265	542
500 mg/kg, oral, Female	3280	309	–	–	2800
500 mg/kg, oral, Male	1510	282	–	–	1110

C=CCc1ccc(OC)c(OC)c1 [Methyleugenol]
concentration in plasma [ng/mL], Rat [1], dosed: Methyleugenol, 37 mg/kg
Details	Female	Male
0.25 h, iv, F344	7960	7180
0.5 h, iv, F344	2470	2440
0.5 h, oral, F344/N	27.3	282
0.75 h, iv, F344	1100	3230
1 h, oral, F344/N	–	243
1.5 h, iv, F344	684	610
1.5 h, oral, F344/N	–	39.6
2 h, oral, F344/N	–	17.4
2 min, iv, F344	57800	32200
2 min, oral, F344/N	29.2	35.1
3 h, iv, F344	215	232
3 h, oral, F344/N	–	12.4
4 h, oral, F344/N	–	17.8
5 h, oral, F344/N	–	15.6
5 min, iv, F344	27400	26700
5 min, oral, F344/N	108	81.2
6 h, iv, F344	–	175
8 h, oral, F344/N	17.8	6.71
10 min, oral, F344/N	345	369
20 min, oral, F344/N	267	233

O=S(=O)([O-])C(F)(F)C(F)(F)C(F)(F)C(F)(F)C(F)(F)C(F)(F)F.[K+] [Perfluorohexane-1-sulphonic acid – potassium salt]
concentration in plasma [ng/mL], Rat [1], dosed: Perfluorohexane-1-sulphonic acid – potassium salt, oral, Male, F344
Details	0.25 h	1 h	3 h	6 h	12 h	24 h	192 h	528 h	864 h	1200 h
4 mg/kg	9900	23300	23900	31000	30800	27400	16200	11300	2510	7070
16 mg/kg	–	73500	–	–	–	–	–	–	–	–

concentration in brain [ng/g], Rat [2]
Details	3 h	6 h	12 h	24 h	48 h	192 h	528 h
F344	1890	1490	2110	1460	–	847	523
Harlan Sprague Dawley	1170	1070	951	731	515	–	–
